# In patent US20180099931A1 (AbbVie S.à.r.l., priority 2016, published 2018):
# Like-named read-outs stand apart in the source and are kept apart here.
# Target: T1, F508delCFTR (Homo sapiens, UniProt P13569, DEL508-508)
# T1 construct: expressed in transfected cells; host or cells: CFBE41o- human lung-derived epithelial cells (CFBE4lo-F508delCFTR-HRP), doxycycline-inducible
# Assay: Cell Surface Expression-Horse Radish Peroxidase (CSE-HRP) Assay;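 on Maximum % activity (with co-corrector): co-corrector and positive control are both the same reference corrector at 2 µM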;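 on Maximum % activity (without co-corrector): percent of the 2 µM on-plate positive control corrector response above DMSO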
# Type: cell-based
# Conditions: for Maximum % activity (with co-corrector): with co-corrector (2 μM); for Maximum % activity (with co-corrector) / Emax: maximum at any tested concentration, normalized to on-plate positive control; for Emax: without co-corrector, read-out: Maximum % activity (without co-corrector)
# [1] = test compound without co-corrector, read-out: EC50 (without co-corrector)
# [2] = with co-corrector (2 μM of 3-[(2R,4R)-4-({[1-(2,2-difluoro-1,3-benzodioxol-5-yl)cyclopropyl]carbonyl}amino)-7-methoxy-3,4-dihydro-2H-chromen-2-yl]benzoic acid), read-out: EC50 (with co-corrector)
# T1 sequence (P13569 with tags, fused parts or gaps DEL508-508): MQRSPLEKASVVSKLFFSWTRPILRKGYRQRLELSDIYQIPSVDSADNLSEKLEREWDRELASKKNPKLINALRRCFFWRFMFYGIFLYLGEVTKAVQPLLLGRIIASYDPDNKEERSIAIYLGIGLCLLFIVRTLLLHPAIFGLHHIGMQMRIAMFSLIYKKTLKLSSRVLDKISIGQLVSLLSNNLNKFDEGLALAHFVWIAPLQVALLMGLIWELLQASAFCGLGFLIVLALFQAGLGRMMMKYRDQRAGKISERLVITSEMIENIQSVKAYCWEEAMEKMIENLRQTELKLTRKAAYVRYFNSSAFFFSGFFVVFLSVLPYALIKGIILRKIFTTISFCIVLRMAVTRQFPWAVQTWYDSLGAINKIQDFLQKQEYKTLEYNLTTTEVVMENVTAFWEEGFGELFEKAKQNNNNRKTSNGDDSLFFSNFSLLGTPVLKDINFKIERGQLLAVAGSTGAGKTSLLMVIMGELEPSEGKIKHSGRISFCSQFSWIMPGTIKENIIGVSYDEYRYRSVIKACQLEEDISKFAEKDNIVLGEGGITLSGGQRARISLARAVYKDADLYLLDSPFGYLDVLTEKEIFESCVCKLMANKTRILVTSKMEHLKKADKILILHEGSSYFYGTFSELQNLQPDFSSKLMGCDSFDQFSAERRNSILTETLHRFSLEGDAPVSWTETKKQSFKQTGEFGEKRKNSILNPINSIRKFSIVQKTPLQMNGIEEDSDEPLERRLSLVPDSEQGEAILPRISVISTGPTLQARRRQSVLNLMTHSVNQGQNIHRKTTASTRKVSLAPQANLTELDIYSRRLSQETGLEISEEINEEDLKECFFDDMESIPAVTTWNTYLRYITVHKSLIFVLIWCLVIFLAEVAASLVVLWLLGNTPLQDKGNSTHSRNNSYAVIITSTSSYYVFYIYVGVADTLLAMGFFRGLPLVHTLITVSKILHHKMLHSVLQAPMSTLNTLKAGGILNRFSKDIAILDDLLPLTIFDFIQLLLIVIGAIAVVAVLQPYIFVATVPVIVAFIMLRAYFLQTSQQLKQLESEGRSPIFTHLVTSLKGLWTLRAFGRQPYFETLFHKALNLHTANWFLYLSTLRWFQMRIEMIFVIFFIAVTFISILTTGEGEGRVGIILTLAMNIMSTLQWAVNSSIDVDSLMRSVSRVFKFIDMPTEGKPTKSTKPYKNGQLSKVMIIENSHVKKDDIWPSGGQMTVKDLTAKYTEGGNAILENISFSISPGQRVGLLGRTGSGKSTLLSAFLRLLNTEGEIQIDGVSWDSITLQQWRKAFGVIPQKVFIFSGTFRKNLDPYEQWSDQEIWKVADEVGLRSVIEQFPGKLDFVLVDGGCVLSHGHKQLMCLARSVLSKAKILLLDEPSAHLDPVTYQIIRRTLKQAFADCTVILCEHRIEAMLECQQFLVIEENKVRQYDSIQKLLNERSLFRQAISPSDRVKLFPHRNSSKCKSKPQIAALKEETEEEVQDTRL
SMILES,EC50 [1] [nM],EC50 [2] [nM],Maximum % activity (with co-corrector),Emax [%]
COc1ccc2ccccc2c1CN[C@H]1[C@H](C(C)(C)C)[C@@H](C(=O)O)N(C(=O)C2CCCCC2)[C@H]1c1ccccc1 [Example I-188],1000 to 10000,1000 to 10000,++ (≥150 and <350),< 100
COc1ncc([Si](C)(C)C)cc1CN[C@H]1[C@H](C(C)(C)C)[C@@H](C(=O)O)N(C(=O)[C@@H]2CCCC(F)(F)C2)[C@H]1c1ccccc1 [Example I-189],< 1000,< 1000,–,–
COc1cc2c(cc1CN[C@H]1[C@H](C(C)(C)C)[C@@H](C(=O)O)N(C(=O)[C@@H]3CCCC(F)(F)C3)[C@H]1c1ccccc1)CCC2 [Example I-190],1000 to 10000,< 1000,+++ (≥350),> 200
COc1ccc(C(C)(C)C)cc1CN[C@H]1[C@H](C(C)(C)C)[C@@H](C(=O)O)N(C(=O)C2CCCS2(=O)=O)[C@H]1c1ccccc1 (some centres unmarked) [Example I-192],1000 to 10000,1000 to 10000,+++ (≥350),100 to 200
COc1nc(C(C)(C)C)ccc1CN[C@H]1[C@H](C(C)(C)C)[C@@H](C(=O)O)N(C(=O)OC(C)C)[C@H]1c1ccccc1 [Example I-194],1000 to 10000,1000 to 10000,+++ (≥350),> 200
COc1nc(C(C)(C)C)ccc1CN[C@H]1[C@H](C(C)(C)C)[C@@H](C(=O)O)N(C(=O)C2CCCC(OC)C2)[C@H]1c1ccccc1 (some centres unmarked) [Example I-197],1000 to 10000,1000 to 10000,+++ (≥350),> 200
COc1ccc(C(C)(C)C)cc1CN[C@H]1[C@H](C(C)(C)C)[C@@H](C(=O)O)N(C(=O)c2ccc3c(c2)OCCO3)[C@H]1c1cccnc1N(C)C [Example I-199],1000 to 10000,1000 to 10000,+++ (≥350),100 to 200
COc1ccc(C(C)(C)C)cc1CN[C@H]1[C@H](C(C)(C)C)[C@@H](C(=O)O)N(C(=O)c2ccc(OC3CCCCC3)cc2)[C@H]1c1cccnc1N(C)C [Example I-200],1000 to 10000,< 1000,+++ (≥350),100 to 200
COc1ccc(C(C)(C)C)cc1CN[C@H]1[C@H](C(C)(C)C)[C@@H](C(=O)O)N(C(=O)C2C3CCCC32)[C@H]1c1cccnc1N(C)C (some centres unmarked) [Example I-201],1000 to 10000,< 1000,+++ (≥350),> 200
COc1ccc(C(C)(C)C)cc1CN[C@H]1[C@H](C23CC(C2)C3)[C@@H](C(=O)O)N(C(=O)C2CCCCC2)[C@H]1c1ccccc1 [Example I-202],1000 to 10000,< 1000,+++ (≥350),> 200
COc1ccc(C(C)(C)C)cc1CN[C@@H]1[C@@H](C(C)(C)C)[C@H](C(=O)NS(C)(=O)=O)N(C(=O)C2CCCCC2)[C@@H]1c1ccccc1 [Example I-203],1000 to 10000,1000 to 10000,++ (≥150 and <350),< 100
COc1ncc(C2CCC2)cc1CN[C@H]1[C@H](C(C)(C)C)[C@@H](C(=O)O)N(C(=O)C2Cc3ccccc3CO2)[C@H]1c1ccccc1 (some centres unmarked) [Example I-206],1000 to 10000,1000 to 10000,+++ (≥350),100 to 200
COc1nc(C(C)(C)C)ncc1CN[C@H]1[C@H](C(C)(C)C)[C@@H](C(=O)O)N(C(=O)C2CCCCC2)[C@H]1c1ccccc1 [Example I-207],1000 to 10000,1000 to 10000,+++ (≥350),100 to 200
COc1ncc(C(F)(F)F)cc1CN[C@H]1[C@H](C(C)(C)C)[C@@H](C(=O)O)N(C(=O)[C@@H]2CCCCO2)[C@H]1c1cccnc1N(C)C [Example I-208],1000 to 10000,1000 to 10000,+++ (≥350),100 to 200
COc1ccc(C(C)(C)C)cc1CN[C@H]1[C@H](C(C)(C)C)[C@@H](C(=O)O)N(C(=O)[C@@H]2CCCCO2)[C@H]1c1cccnc1OC [Example I-209],1000 to 10000,1000 to 10000,+++ (≥350),> 200
COc1ccc(C23CC(C2)C3)cc1CN[C@H]1[C@H](C(C)(C)C)[C@@H](C(=O)O)N(C(=O)OC(C)C)[C@H]1c1ccccc1 [Example I-210],1000 to 10000,< 1000,+++ (≥350),> 200
COc1cnc(N2CCCC2)cc1CN[C@H]1[C@H](C(C)(C)C)[C@@H](C(=O)O)N(C(=O)C2CCCCC2)[C@H]1c1ccccc1 [Example I-212],1000 to 10000,1000 to 10000,++ (≥150 and <350),< 100

SMILES,EC50 [1] [nM],EC50 [2] [nM],Maximum % activity (with co-corrector),Emax [%]
COc1ccc(C(C)(C)C(F)(F)F)cc1CN[C@H]1[C@H](C(C)(C)C)[C@@H](C(=O)O)N(C(=O)C2CCCCC2)[C@H]1c1ccccc1 [Example I-213],1000 to 10000,1000 to 10000,+++ (≥350),> 200
COc1ncc(C2CCC2)cc1CN[C@H]1[C@H](C(C)(C)C)[C@@H](C(=O)O)N(C(=O)OC(C)C)[C@H]1c1ccccc1 [Example I-214],1000 to 10000,1000 to 10000,+++ (≥350),> 200
COc1ncc(C(F)(F)F)cc1N[C@H]1[C@H](C(C)(C)C)[C@@H](C(=O)O)N(C(=O)[C@@H]2CCCCO2)[C@H]1c1cccnc1N(C)C [Example I-215],> 10000,1000 to 10000,++ (≥150 and <350),< 100
COc1nc(C(C)(C)C)ccc1CN[C@H]1[C@H](C(C)(C)C)[C@@H](C(=O)O)N(C(=O)OC(C)C)[C@H]1c1ccccc1C(C)C [Example I-216],< 1000,< 1000,+++ (≥350),> 200
COc1ccc(C(C)(C)C)cc1CN[C@H]1[C@H](C(C)(C)C)[C@@H](C(=O)O)N(C(=O)C2CCOC2C(C)C)[C@H]1c1ccccc1 (some centres unmarked) [Example I-218],1000 to 10000,1000 to 10000,+++ (≥350),> 200
CC(C)(C)[C@H]1[C@H](NCC2(c3ccccc3Cl)CCOCC2)[C@H](c2ccccc2)N(C(=O)C2CCCCC2)[C@@H]1C(=O)O [Example I-219],1000 to 10000,1000 to 10000,+++ (≥350),100 to 200
COc1ccc(C(C)(C)C)cc1CN[C@H]1[C@H](C(C)(C)OC)[C@@H](C(=O)O)N(C(=O)OC(C)C)[C@H]1c1cccnc1N(C)C [Example I-220],1000 to 10000,1000 to 10000,+++ (≥350),> 200
COc1ccc(C(C)(C)C)cc1CN[C@H]1[C@H](C(C)(C)C)[C@@H](C(=O)O)N(C(=O)OC(C)C)[C@H]1c1ccccc1F [Example I-221],1000 to 10000,1000 to 10000,+++ (≥350),> 200
Cc1cc(C(F)(F)F)cc(N[C@H]2[C@H](C(C)(C)C)[C@@H](C(=O)O)N(C(=O)C3C4CCCC43)[C@H]2c2cccnc2N(C)C)n1 (some centres unmarked) [Example I-222],1000 to 10000,1000 to 10000,++ (≥150 and <350),< 100
COc1ccc(C23CC(C2)C3)cc1CN[C@H]1[C@H](C(C)(C)C)[C@@H](C(=O)O)N(C(=O)OC(C)C)[C@H]1c1cccnc1OC [Example I-224],1000 to 10000,1000 to 10000,+++ (≥350),100 to 200
COc1ccc(C(C)(C)C)cc1CN[C@H]1[C@H](C(C)(C)C)[C@@H](C(=O)O)N(C(=O)C2CCCCC2)[C@H]1c1cccnc1OC(F)F [Example I-225],1000 to 10000,1000 to 10000,+++ (≥350),100 to 200
COc1ccc(C(C)(C)C)cc1CN[C@H]1[C@H](C23CC(C2)C3)[C@@H](C(=O)O)N(C(=O)OC(C)C)[C@H]1c1ccccc1 [Example I-226],1000 to 10000,1000 to 10000,+++ (≥350),> 200
COc1ccc(C(C)(C)C)cc1CN[C@H]1[C@H](C(C)(C)C)[C@@H](C(=O)O)N(C(=O)OC(C)C)[C@H]1c1cccnc1OC(F)F [Example I-227],1000 to 10000,1000 to 10000,+++ (≥350),100 to 200
COc1ccc(C23CC(C2)C3)cc1CN[C@H]1[C@H](C(C)(C)C)[C@@H](C(=O)O)N(C(=O)C2CCCCC2)[C@H]1c1cccnc1OC(F)F [Example I-228],1000 to 10000,1000 to 10000,+++ (≥350),100 to 200
COc1ccc(C(C)(C)C)cc1CN[C@H]1[C@H](C(C)(C)C)[C@@H](C(=O)O)N(C(=O)C2CCCCC2)[C@H]1c1ccccc1OC(F)F [Example I-229],1000 to 10000,< 1000,+++ (≥350),100 to 200
COc1nc(C(C)(C)C)ccc1CN[C@H]1[C@H](C(C)(C)C)[C@@H](C(=O)O)N(C(=O)C2CCCCC2)[C@H]1c1cccnc1OC [Example I-230],1000 to 10000,1000 to 10000,+++ (≥350),100 to 200
COc1nc(C(C)(C)C)ccc1CN[C@H]1[C@H](C(C)(C)C)[C@@H](C(=O)O)N(C(=O)[C@@H]2CCCCO2)[C@H]1c1ccccc1F [Example I-231],1000 to 10000,1000 to 10000,+++ (≥350),100 to 200
